Entries after “also recorded” stand apart in the source; their conditions may differ. Ends that are not written are not given here. * marks the point of attachment. MTSL = nitroxide spin label, CC1(C)C=C(CS*)C(C)(C)N1[O]

Experiment [1] deals with CRYΔ (residues 1-520) (Drosophila melanogaster, UniProt O77059). It is filed as binding. Conditions: fluorescence polarization; dark and light. Background: Fluorescence polarisation rises when a labelled molecule tumbles more slowly, as on binding a larger partner.
The target of experiment [2] is CRY Full-Length (residues 1-539) (Drosophila melanogaster, UniProt O77059). It is filed as binding. The settings on record: fluorescence polarization; dark and light.
Experiment [3] addresses T1, CRY Asn253Ala/Gln254Ala (Drosophila melanogaster, UniProt O77059, N253A/Q254A). It is filed as binding. The settings on record: fluorescence polarization; dark and light.
The target in experiment [4] is CRY Arg237Ala (Drosophila melanogaster, UniProt O77059, R237A). It is filed as binding. Conditions: fluorescence polarization; dark and light.
Experiment [5] addresses T1, CRY Asn253Ala/Gln254Ala. The settings on record: DEER; light state and dark-state proxy; compared with WT CRYΔ.
Experiment [6] has as its system CRYΔ. Conditions: ref [20]-[22]; cited from earlier work.

CRYΔ (residues 1-520), sequence (O77059 1-520, stated change not applied): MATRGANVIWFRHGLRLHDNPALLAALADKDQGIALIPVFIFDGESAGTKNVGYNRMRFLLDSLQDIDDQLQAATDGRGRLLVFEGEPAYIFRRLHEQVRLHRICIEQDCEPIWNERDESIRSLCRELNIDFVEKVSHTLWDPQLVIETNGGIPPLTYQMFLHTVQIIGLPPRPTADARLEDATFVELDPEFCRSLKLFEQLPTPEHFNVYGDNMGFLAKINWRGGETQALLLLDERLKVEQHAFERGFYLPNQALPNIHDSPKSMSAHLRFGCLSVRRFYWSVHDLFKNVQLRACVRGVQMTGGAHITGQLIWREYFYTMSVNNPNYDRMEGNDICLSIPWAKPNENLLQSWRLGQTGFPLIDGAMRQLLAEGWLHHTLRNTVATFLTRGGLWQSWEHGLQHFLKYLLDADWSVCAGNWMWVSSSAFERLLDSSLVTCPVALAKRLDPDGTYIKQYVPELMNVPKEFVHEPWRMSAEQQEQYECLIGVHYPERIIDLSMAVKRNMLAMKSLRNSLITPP
T1 sequence (O77059 1-539 N253A/Q254A): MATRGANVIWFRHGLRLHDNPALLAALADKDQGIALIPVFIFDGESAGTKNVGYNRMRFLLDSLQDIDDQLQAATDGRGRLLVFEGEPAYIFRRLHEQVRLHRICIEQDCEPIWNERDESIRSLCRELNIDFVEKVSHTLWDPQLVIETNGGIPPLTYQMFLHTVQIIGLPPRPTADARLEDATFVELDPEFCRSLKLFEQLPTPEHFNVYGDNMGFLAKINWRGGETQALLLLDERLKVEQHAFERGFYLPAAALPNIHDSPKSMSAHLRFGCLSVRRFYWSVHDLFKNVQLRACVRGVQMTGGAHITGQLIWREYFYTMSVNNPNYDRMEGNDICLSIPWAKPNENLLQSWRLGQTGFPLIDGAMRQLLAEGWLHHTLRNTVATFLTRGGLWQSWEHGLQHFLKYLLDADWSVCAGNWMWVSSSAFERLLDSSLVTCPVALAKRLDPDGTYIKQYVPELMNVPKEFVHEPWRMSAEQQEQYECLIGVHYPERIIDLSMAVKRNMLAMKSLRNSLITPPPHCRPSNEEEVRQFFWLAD
CRY Arg237Ala, sequence (O77059 1-539 R237A): as the sequence (O77059 1-539 N253A/Q254A) above, with R237A, A253N, A254Q counted along it
CRY Full-Length (residues 1-539), sequence (O77059 1-539): as the sequence (O77059 1-539 N253A/Q254A) above, with A253N, A254Q counted along it

For the molecule MDWLLATPQLYSAFSSLGC [S-TIMN], the “binding to CRYΔ (in words)” value in experiment [1] was “bound S-TIMN in both dark and light, but with somewhat higher affinity in the light; also recorded: reasonably high affinity in the dark and even tighter affinity in the light; also recorded: more strongly in light than dark”. In addition, the “binding to full-length CRY (in words)” value in experiment [2] is recorded as “bound to full-length CRY (residues 1-539) only in light with an affinity similar to that seen for CRYΔ in light”. Further, the “binding to Asn253Ala/Gln254Ala (in words)” value in experiment [3] is “bound both in dark and light, with stronger binding and a larger fraction of binding in the dark”. In experiment [4], the “binding to Arg237Ala (in words)” value is reported as “no detectable binding of S-TIMN in either dark or light; also recorded: does not bind to CRY in either dark or light”.

In the case of “S-TIMN-SL: S-TIMN spin-labeled with MTSL (MDWLLATPQLYSAFSSLGC(MTSL))”, the “interaction of spin-labeled S-TIMN with Asn253Ala/Gln254Ala (in words)” value in experiment [5] is on record as “considerably different than that observed for WT CRYΔ”.

B1: full-length TIM: Drosophila core oscillator protein Timeless (protein, UniProt P49021 1-1398, looked up)
chain: MDWLLATPQLYSAFSSLGCLEGDTYVVNPNALAILEEINYKLTYEDQTLRTFRRAIGFGQNVRSDLIPLLENAKDDAVLESVIRILVNLTVPVECLFSVDVMYRTDVGRHTIFELNKLLYTSKEAFTEARSTKSVVEYMKHILESDPKLSPHKCDQINNCLLLLRNILHIPETHAHCVMPMMQSMPHGISMQNTILWNLFIQSIDKLLLYLMTCPQRAFWGVTMVQLIALIYKDQHVSTLQKLLSLWFEASLSESSEDNESNTSPPKQGSGDSSPMLTSDPTSDSSDNGSNGRGMGGGMREGTAATLQEVSRKGQEYQNAMARVPADKPDGSEEASDMTGNDSEQPGSPEQSQPAGESMDDGDYEDQRHRQLNEHGEEDEDEDEVEEEEYLQLGPASEPLNLTQQPADKVNNTTNPTSSAPQGCLGNEPFKPPPPLPVRASTSAHAQMQKFNESSYASHVSAVKLGQKSPHAGQLQLTKGKCCPQKRECPSSQSELSDCGYGTQVENQESISTSSNDDDGPQGKPQHQKPPCNTKPRNKPRTIMSPMDKKELRRKKLVKRSKSSLINMKGLVQHTPTDDDISNLLKEFTVDFLLKGYSYLVEELHMQLLSNAKVPIDTSHFFWLVTYFLKFAAQLELDMEHIDTILTYDVLSYLTYEGVSLCEQLELNARQEGSDLKPYLRRMHLVVTAIREFLQAIDTYNKVTHLNEDDKAHLRQLQLQISEMSDLRCLFVLLLRRFNPSIHSKQYLQDLVVTNHILLLILDSSAKLGGCQTIRLSEHITQFATLEVMHYYGILLEDFNNNGEFVNDCIFTMMHHIGGDLGQIGVLFQPIILKTYSRIWEADYELCDDWSDLIEYVIHKFMNTPPKSPLTIPTTSLTEMTKEHNQEHTVCSWSQEEMDTLYWYYVQSKKNNDIVGKIVKLFSNNGNKLKTRISIIQQLLQQDIITLLEYDDLMKFEDAEYQRTLLTTPTSATTESGIEIKECAYGKPSDDVQILLDLIIKENKAQHLLWLQRILIECCFVKLTLRSGLKVPEGDHIMEPVAYHCICKQKSIPVVQWNNEQSTTMLYQPFVLLLHKLGIQLPADAGSIFARIPDYWTPETMYGLAKKLGPLDKLNLKFDASELEDATASSPSRYHHTGPRNSLSSVSSLDVDLGDTEELALIPEVDAAVEKAHAMASTPSPSEIFAVPKTKHCNSIIRYTPDPTPPVPNWLQLVMRSKCNHRTGPSGDPSDCIGSSSTTVDDEGFGKSISAATSQAASTSMSTVNPTTTLSLNMLNTFMGSHNENSSSSGCGGTVSSLSMVALMSTGAAGGGGNTSGLEMDVDASMKSSFERLEVNGSHFSRANNLDQEYSAMVASVYEKEKELNSDNVSLASDLTRMYVSDEDDRLERTEIRVPHYH
modifications: full-length
As for B1, the “binding of TIM to CRYΔ (in words)” value in experiment [6] is “binds TIM in both dark and light”.

Values taken from publication PMC11289166 (Biochemistry, 2024).
